Legend:
[1] = molecular target: T1, Phosphatidylinositol 4-kinase type 2-alpha (Homo sapiens, UniProt Q9BTU6); experiment: Inhibition of PI4K2A (unknown origin) assessed as remaining enzyme activity by ADP-Glo kinase assay relative to untreated control; design: concentration or dose not given beside the values
[2] = molecular target: T1, Phosphatidylinositol 4-kinase type 2-alpha; experiment: Inhibition of PI4K2A (unknown origin) by ADP-Glo kinase assay
[3] = molecular target: Phosphatidylinositol 4-kinase alpha (Homo sapiens, UniProt P42356); experiment: Inhibition of PI4KA (unknown origin) by ADP-Glo kinase assay
Phosphatidylinositol 4-kinase alpha, sequence (P42356 whole entry): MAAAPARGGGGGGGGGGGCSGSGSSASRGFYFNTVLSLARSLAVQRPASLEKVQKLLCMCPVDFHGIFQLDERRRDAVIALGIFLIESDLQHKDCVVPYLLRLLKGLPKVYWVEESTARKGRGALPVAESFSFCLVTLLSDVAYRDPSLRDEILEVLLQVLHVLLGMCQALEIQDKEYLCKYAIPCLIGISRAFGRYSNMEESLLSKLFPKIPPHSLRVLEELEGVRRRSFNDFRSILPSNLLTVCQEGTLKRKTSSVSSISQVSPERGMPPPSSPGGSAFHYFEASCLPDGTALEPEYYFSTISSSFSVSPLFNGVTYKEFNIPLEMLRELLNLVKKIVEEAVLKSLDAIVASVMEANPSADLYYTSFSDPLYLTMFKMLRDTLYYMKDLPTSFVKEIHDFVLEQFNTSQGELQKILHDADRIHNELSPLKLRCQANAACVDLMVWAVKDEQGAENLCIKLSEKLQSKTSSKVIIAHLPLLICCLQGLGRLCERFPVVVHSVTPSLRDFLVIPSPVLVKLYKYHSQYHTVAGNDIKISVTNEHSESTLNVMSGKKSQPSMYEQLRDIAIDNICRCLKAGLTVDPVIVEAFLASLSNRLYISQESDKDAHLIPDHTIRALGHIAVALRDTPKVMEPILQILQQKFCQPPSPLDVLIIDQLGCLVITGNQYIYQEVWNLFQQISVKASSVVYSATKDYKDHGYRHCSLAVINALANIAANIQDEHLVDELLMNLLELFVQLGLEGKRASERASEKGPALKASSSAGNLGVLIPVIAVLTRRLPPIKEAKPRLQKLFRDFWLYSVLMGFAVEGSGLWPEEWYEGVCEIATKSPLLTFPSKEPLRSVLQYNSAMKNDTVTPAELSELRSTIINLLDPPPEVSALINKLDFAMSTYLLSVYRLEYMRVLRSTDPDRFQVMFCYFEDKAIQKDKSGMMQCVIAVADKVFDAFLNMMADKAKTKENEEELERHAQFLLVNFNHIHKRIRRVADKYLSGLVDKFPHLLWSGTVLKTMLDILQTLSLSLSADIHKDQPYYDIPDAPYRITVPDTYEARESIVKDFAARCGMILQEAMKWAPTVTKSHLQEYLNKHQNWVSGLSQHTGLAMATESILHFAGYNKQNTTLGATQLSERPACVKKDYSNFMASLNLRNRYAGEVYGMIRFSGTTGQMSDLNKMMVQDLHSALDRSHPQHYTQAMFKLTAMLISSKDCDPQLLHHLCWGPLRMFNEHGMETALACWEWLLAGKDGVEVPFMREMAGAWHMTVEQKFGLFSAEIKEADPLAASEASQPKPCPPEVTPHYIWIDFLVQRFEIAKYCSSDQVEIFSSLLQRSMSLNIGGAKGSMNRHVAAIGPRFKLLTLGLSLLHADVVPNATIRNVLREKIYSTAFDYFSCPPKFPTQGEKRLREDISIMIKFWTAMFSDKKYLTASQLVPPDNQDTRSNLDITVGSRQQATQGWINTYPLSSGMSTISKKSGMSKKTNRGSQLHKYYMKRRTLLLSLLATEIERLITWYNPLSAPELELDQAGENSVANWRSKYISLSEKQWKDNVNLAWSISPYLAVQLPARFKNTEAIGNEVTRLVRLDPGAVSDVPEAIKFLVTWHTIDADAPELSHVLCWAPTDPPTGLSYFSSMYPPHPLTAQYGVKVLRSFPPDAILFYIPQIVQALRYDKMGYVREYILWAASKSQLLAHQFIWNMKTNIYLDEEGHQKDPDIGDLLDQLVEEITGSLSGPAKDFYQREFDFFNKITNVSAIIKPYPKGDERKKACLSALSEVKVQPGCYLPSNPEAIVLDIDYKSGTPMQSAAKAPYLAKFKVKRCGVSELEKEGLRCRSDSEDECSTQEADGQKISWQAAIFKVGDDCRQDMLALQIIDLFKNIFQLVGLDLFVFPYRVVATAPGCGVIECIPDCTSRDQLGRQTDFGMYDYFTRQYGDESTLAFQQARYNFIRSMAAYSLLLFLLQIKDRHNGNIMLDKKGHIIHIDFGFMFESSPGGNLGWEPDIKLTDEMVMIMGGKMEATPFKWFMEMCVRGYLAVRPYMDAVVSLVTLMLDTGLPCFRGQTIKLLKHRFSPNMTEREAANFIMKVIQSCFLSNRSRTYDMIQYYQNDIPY

[4] = Cytotoxicity against human HeLa cells incubated for 3 days by MTT assay; type: toxicity, cell-based
[5] = molecular target: T2, Phosphatidylinositol 4-kinase beta (Homo sapiens, UniProt Q9UBF8); experiment: Inhibition of PI4KB (unknown origin) at 1 uM by ADP-Glo kinase assay
Target sequence in this assay (Q9UBF8 2-816 limits assumed): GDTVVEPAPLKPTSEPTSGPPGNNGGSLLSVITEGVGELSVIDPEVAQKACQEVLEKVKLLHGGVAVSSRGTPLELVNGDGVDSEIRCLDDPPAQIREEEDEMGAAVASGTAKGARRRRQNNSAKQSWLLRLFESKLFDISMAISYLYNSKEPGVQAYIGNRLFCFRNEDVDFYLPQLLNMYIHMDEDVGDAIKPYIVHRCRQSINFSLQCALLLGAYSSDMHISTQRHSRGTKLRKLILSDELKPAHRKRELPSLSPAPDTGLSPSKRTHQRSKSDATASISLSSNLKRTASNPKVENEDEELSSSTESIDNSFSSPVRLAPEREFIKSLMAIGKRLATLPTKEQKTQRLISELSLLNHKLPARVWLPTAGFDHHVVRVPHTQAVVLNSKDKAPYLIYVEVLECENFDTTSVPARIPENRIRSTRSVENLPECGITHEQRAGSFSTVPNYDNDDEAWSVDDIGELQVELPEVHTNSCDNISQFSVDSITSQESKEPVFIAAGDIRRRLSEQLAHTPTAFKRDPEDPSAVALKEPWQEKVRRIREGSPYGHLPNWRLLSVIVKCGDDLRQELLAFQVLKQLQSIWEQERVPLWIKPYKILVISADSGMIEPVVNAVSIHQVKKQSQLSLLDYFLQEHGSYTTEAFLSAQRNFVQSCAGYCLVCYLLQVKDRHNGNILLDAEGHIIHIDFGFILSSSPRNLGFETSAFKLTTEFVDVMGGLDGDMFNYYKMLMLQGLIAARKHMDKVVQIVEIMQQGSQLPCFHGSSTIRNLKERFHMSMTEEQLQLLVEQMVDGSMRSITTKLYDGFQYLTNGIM

[6] = molecular target: Phosphatidylinositol 4,5-bisphosphate 3-kinase catalytic subunit alpha isoform (Homo sapiens, UniProt P42336); experiment: Inhibition of PI3Kalpha (unknown origin) by ADP-Glo kinase assay
[7] = molecular target: Phosphatidylinositol 4,5-bisphosphate 3-kinase catalytic subunit beta isoform (Homo sapiens, UniProt P42338); experiment: Inhibition of PI3Kbeta (unknown origin) by ADP-Glo kinase assay
[8] = molecular target: T3, Phosphatidylinositol 4,5-bisphosphate 3-kinase catalytic subunit delta isoform (Homo sapiens, UniProt O00329); experiment: Inhibition of PI3Kdelta (unknown origin) by ADP-Glo kinase assay
T3 sequence (O00329 whole entry): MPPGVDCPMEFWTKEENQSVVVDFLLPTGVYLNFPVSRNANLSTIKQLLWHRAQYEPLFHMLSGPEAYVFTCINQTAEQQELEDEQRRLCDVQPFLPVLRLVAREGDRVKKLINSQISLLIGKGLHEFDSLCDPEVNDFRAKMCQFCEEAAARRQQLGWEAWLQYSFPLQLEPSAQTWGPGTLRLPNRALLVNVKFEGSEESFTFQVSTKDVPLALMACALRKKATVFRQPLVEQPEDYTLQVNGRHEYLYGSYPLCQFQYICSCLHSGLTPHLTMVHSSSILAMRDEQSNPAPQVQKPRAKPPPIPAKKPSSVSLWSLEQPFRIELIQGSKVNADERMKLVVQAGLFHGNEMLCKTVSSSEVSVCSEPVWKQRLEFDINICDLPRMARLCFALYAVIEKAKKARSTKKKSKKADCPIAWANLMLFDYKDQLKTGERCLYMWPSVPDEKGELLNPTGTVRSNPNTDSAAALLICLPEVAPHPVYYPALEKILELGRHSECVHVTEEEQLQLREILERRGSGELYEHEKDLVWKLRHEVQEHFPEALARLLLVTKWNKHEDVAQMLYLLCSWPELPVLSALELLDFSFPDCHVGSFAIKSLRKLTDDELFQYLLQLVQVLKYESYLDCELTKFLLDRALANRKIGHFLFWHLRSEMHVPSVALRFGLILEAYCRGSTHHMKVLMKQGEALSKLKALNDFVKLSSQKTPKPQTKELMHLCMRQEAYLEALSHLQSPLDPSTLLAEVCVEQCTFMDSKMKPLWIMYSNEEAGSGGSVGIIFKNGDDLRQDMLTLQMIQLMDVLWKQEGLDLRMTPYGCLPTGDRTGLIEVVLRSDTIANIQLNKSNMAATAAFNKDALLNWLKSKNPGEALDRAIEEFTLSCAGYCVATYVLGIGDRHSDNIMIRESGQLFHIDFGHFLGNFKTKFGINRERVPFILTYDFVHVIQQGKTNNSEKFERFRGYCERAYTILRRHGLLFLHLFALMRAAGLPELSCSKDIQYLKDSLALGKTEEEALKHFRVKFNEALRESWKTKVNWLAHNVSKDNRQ

[9] = molecular target: Phosphatidylinositol 4,5-bisphosphate 3-kinase catalytic subunit gamma isoform (Homo sapiens, UniProt P48736); experiment: Inhibition of PI3Kgamma (unknown origin) by ADP-Glo kinase assay
Phosphatidylinositol 4,5-bisphosphate 3-kinase catalytic subunit gamma isoform, sequence (P48736 whole entry, canonical isoform): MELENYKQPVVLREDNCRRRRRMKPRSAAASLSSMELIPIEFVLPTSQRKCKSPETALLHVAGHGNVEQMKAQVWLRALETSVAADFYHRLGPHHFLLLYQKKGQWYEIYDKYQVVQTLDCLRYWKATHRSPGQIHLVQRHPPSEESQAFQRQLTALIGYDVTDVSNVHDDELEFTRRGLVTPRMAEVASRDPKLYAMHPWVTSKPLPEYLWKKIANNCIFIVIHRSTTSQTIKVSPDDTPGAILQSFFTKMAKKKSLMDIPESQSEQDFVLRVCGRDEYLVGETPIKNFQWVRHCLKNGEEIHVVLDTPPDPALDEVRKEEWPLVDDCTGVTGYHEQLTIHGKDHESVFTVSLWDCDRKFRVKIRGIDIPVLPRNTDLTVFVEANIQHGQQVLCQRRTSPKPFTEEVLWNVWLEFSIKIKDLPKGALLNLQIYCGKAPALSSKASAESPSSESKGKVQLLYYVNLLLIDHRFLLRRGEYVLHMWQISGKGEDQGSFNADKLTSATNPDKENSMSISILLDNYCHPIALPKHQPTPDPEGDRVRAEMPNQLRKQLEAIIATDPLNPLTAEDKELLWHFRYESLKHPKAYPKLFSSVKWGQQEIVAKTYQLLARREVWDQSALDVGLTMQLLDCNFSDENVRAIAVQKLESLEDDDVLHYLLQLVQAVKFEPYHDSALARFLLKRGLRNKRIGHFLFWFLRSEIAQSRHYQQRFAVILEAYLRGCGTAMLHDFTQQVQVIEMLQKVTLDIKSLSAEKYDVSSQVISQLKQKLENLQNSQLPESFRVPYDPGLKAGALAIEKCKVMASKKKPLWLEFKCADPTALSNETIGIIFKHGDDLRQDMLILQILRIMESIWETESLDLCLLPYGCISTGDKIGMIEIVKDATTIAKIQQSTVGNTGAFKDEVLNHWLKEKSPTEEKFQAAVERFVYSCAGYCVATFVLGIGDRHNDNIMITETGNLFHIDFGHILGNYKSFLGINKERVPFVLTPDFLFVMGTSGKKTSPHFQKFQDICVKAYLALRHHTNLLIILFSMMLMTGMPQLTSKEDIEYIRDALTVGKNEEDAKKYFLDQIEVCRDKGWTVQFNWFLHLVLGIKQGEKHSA

[10] = system: Human rhinovirus 1A; experiment: microbe, parasite or virus in culture; details: HeLa, 72 h
[11] = system: Coxsackievirus B3; experiment: microbe, parasite or virus in culture; details: Enterovirus B, Nancy, HeLa, 4 h
[12] = system: Hepatitis C virus; experiment: microbe, parasite or virus in culture; details: genotype 1b, Huh-7, 72 h
[13] = system: Hepatitis C virus; experiment: microbe, parasite or virus in culture; details: subtype 2a JFH1, Huh-7, 72 h
[14] = molecular target: T2, Phosphatidylinositol 4-kinase beta; experiment: Inhibition of PI4KB (unknown origin) by ADP-Glo kinase assay

T1 sequence (Q9BTU6 whole entry): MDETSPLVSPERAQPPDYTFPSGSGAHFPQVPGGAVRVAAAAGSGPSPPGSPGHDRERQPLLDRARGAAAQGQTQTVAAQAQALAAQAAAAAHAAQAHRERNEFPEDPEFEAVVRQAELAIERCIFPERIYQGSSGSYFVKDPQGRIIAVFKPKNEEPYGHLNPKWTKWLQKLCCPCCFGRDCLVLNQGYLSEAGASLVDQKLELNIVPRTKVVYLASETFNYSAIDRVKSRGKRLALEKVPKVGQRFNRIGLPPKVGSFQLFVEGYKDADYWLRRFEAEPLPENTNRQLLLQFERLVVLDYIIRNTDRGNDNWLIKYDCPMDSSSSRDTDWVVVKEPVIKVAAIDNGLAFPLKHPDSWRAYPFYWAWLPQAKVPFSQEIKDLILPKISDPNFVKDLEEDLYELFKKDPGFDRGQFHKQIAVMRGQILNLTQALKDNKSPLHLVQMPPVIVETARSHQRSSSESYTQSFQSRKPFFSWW

| SMILES | Activity [1] [%] | CC50 at 72 h [4] [µM] | EC50 [10] [µM] | EC50 [11] [µM] | EC50 [12] [µM] | EC50 [13] [µM] | further results |
| --- | --- | --- | --- | --- | --- | --- | --- |
| COc1ccc(-c2c(C)nc3c(NCCNC(C)=O)cc(Cl)nn23)cc1S(=O)(=O)NCCN(C)C | 105 |  |  |  |  |  |  |
| CCc1cc(CNc2cc(Cl)nn3c(-c4ccc(OC)c(S(=O)(=O)NCCO)c4)c(C)nc23)ccn1 | 106 | 18.3 | 0.075 | 0.058 | 0.029 | 14.4 | IC50 [2]: > 10 µM; IC50 [3]: 13.4 µM; inhibition [5]: 50%; IC50 [6]: < 10 µM; IC50 [7]: < 10 µM; IC50 [8]: < 10 µM; IC50 [9]: < 10 µM |
| CCc1cc(CNc2cc(Cl)nn3c(-c4ccc(OC)c(S(=O)(=O)NC5CC5)c4)c(C)nc23)ccn1 | 114 |  |  |  |  |  |  |
| C=CCNS(=O)(=O)c1cc(-c2c(C)nc3c(NCc4ccnc(CC)c4)cc(Cl)nn23)ccc1OC | 105 | 6.85 | < 0.01 | 0.012 | 0.667 | 20.1 |  |
| COc1ccc(-c2c(C)nc3c(NCCNC(C)=O)cc(Cl)nn23)cc1S(=O)(=O)N(C)C | 104 | 84.2 | 0.716 | 1.32 | 0.594 | > 44.4 |  |
| CCc1cc(CNc2cc(Cl)nn3c(-c4ccc(OC)c(S(=O)(=O)N(C)C)c4)c(C)nc23)ccn1 | 106 |  |  |  |  |  |  |
| CCc1cc(CNc2cc(Cl)nn3c(-c4ccc(OC)c(S(=O)(=O)N5CCCCC5)c4)c(C)nc23)ccn1 | 99 |  |  |  |  |  |  |
| COc1ccc(-c2c(C)nc3c(NCCNC(C)=O)cc(Cl)nn23)cc1S(=O)(=O)N1CCC(O)CC1 | 88 |  |  |  |  |  |  |
| COc1ccc(-c2c(C)nc3c(NCCNC(C)=O)cc(Cl)nn23)cc1S(=O)(=O)n1cccn1 | 83 |  |  |  |  |  |  |
| CCc1cc(CNc2cc(Cl)nn3c(-c4ccc(OC)c(S(=O)(=O)NC(CC)CO)c4)c(C)nc23)ccn1 (configuration not stated) | 104 | 17.9 | < 0.01 | 0.476 | < 0.02 | 9.44 |  |
| COc1ccc(-c2c(C)nc3c(NCCNC(C)=O)cc(Cl)nn23)cc1S(=O)(=O)NCCO | 112 |  |  |  |  |  |  |
| COc1ccc(-c2c(C)nc3c(NCCNC(C)=O)cc(Cl)nn23)cc1S(=O)(=O)N1CCCCC1 | 60 |  |  |  |  |  |  |
| CCc1cc(CNc2cc(Cl)nn3c(-c4ccc(OC)c(S(=O)(=O)NCCOC)c4)c(C)nc23)ccn1 | 104 | 9.14 | < 0.01 | < 0.02 | 0.416 | 27.9 |  |
| CCC(CO)NS(=O)(=O)c1cc(-c2c(C)nc3c(NCCNC(C)=O)cc(Cl)nn23)ccc1OC (configuration not stated) | 77 | > 50 | 6.76 | 1.66 | 3.42 | > 44.4 |  |
| CCc1cc(CNc2cc(Cl)nn3c(-c4ccc(OC)cc4)c(C)nc23)ccn1 | 101 |  |  |  |  |  |  |
| CCc1cc(CNc2cc(Cl)nn3c(-c4ccc(OC)c(S(=O)(=O)n5cccn5)c4)c(C)nc23)ccn1 | 112 | 61.9 | < 0.01 | 0.138 | 0.954 | > 44.4 |  |
| CCc1cc(CNc2cc(Cl)nn3c(-c4ccc(OC)c(S(=O)(=O)N5CCOCC5)c4)c(C)nc23)ccn1 | 97 | 25.7 | < 0.01 | 0.083 | 1.02 | 26 |  |
| COc1ccc(-c2c(C)nc3c(NCCNC(C)=O)cc(Cl)nn23)cc1S(=O)(=O)NC1CC1 | 108 |  |  |  |  |  |  |
| CCc1cc(CNc2cc(Cl)nn3c(-c4cccc(S(=O)(=O)N(C)C)c4)c(C)nc23)ccn1 |  | 15.4 | 0.062 | 1.1 | 0.393 | 8.69 |  |
| C=CCNS(=O)(=O)c1cc(-c2c(C)nc3c(NCCNC(C)=O)cc(Cl)nn23)ccc1OC | 93 | 445 | 0.99 | 5.31 | 2.68 | 35.9 |  |
| COc1ccc(-c2c(C)nc3c(NCCNC(C)=O)cc(Cl)nn23)cc1S(=O)(=O)N1CCOCC1 | 88 | 89.2 | 0.655 | 0.038 | 1.03 | > 44.4 |  |
| CCc1cc(CNc2cc(Cl)nn3c(-c4ccc(OC)c(S(=O)(=O)NCCN(C)C)c4)c(C)nc23)ccn1 | 100 | 5.56 | < 0.01 | 0.151 | 0.35 | 8.51 |  |
| CCc1cc(CNc2cc(Cl)nn3c(-c4ccc(OC)c(S(=O)(=O)N5CCC(CO)CC5)c4)c(C)nc23)ccn1 | 115 |  |  |  |  |  |  |
| CCc1cc(CNc2cc(Cl)nn3c(-c4ccc(OC)c(S(=O)(=O)NC5CCC(N)CC5)c4)c(C)nc23)ccn1 (configuration not stated) | 101 | 5.76 | 0.069 | 0.056 | 9.2 | 26.5 |  |
| COCCNS(=O)(=O)c1cc(-c2c(C)nc3c(NCCNC(C)=O)cc(Cl)nn23)ccc1OC | 107 |  |  |  |  |  |  |
| CC(=O)NCCNc1cc(Cl)nn2c(-c3cccc(S(=O)(=O)N(C)C)c3)c(C)nc12 |  |  |  |  |  |  | IC50 [14]: 0.054 µM; IC50 [3]: > 100 µM |
| CNCCNS(=O)(=O)c1cc(-c2c(C)nc3c(NCCNC(C)=O)cc(Cl)nn23)ccc1OC | 73 |  |  |  |  |  |  |
| COc1ccc(-c2c(C)nc3c(NCCNC(C)=O)cc(Cl)nn23)cc1S(=O)(=O)NC1CCC(N)CC1 (configuration not stated) | 102 |  |  |  |  |  |  |
| COc1ccc(-c2c(C)nc3c(NCCNC(C)=O)cc(Cl)nn23)cc1S(=O)(=O)N1CCC(CO)CC1 | 85 | 131 | 5.42 | 5 | 1.83 | > 44.4 |  |
| CCc1cc(CNc2cc(Cl)nn3c(-c4ccc(OC)c(S(=O)(=O)N5CCC(O)CC5)c4)c(C)nc23)ccn1 | 109 | 8.4 | < 0.01 | 0.017 | 0.02 | 20.4 |  |
